Laboratory results taken from publication PMC12603070, “A high-throughput screening approach to discover potential colorectal cancer chemotherapeutics: repurposing drugs to identify novel disruptors of 14-3-3 proteins” (Cell Death & Disease, 2025).

Test system: BAD translocation to mitochondria in NIH-3T3 cells
Assay: Confocal imaging of BAD-mCitrine translocation to TMRE-labeled mitochondria in NIH-3T3
Type: cell-based
Conditions: NIH-3T3 expressing BAD-mCitrine; R18 10 µM, FTY720 2 µM; 24 h
Experimental: To visualize BAD translocation, 35 mm glass-bottom dishes (ibidi, Gräfelfing, Germany; #81158) were coated with 0.1 mg/mL Poly-D-lysine hydrobromide for 2 h at 37 °C. After coating, dishes were washed twice with sterilized water. Subsequently, cells transfected with BAD-mCitrine were seeded at a density of 20,000 cells per dish and incubated for 24 h to allow for cell attachment. For live-cell imaging, cells were then incubated for 1 h with the mitochondrial membrane potential dye tetramethylrhodamine ethyl ester (TMRE, Invitrogen; #T668) at a final concentration of 100 nM, according to the manufacturer’s instructions. Images were acquired on a Zeiss (Oberkochen, Germany) LSM-900 Airyscan inverted confocal microscope equipped with an environmental incubation system, laser lines including 488 and 561 nm, and an oil immersion 60×/1.40 Plan achromat objective. The signal from the YFP fluorophore (ex. 488 nm, det. 525–542 nm) and the TMRE (ex. 561 nm, det. 600–700 nm) were collected in super-resolution mode. The cell viability dye, DRAQ (BioLegend, California, USA; #424101), was added to the medium at a 1:1000 dilution from the commercial stock and incubated at room temperature for 30 min prior to live-cell imaging. To quantify the colocalization of BAD-mCitrine and the mitochondria labeled with the TMRE, the JACoP plugin in ImageJ was employed. […]

## CCCCCCCCc1ccc(CCC(N)(CO)CO)cc1 [Fingolimod (FTY720), Fingolimod]
  BAD translocation to TMRE-labeled mitochondria: promoted BAD translocation
